Like-named read-outs stand apart in the source and are kept apart here.
Key:
Test in all cases: Glasshouse assay for herbicidal activity (pre- and post-emergence), percentage phytotoxicity
Format in all cases: in vivo
[1] = tested on: Alopecurus myosuroides (ALOMY); settings: Alopecurus myosuroides, 250 g/ha, visual assessment (100%=total damage, 0%=no damage)
Method: (§1) Test—Glasshouse Assay for Herbicidal Activity
(§2) Seeds of a variety of monocotyledonous and dicotyledonous test plants are sown in standard soil in pots. The plants are cultivated for one day (for pre-emergence (PRE)) or for about 12 days (for post-emergence (POST)) under controlled conditions in a glasshouse (warm climate species at 24/18° C., cool climate species at 20/16° C., both at day/night; 16 hours light; 65% humidity).
(§3) The test plants are then grown on, in a glasshouse (greenhouse) under controlled conditions (warm climate species at 24/18° C., cool climate species at 20/16° C., both at day/night; 16 hours light; 65% humidity) and are watered twice daily. 15 days after application of the test herbicide (15 DAA) (for post-emergence), and 20 days after application of the test herbicide (20 DAA) (for pre-emergence), the test plants are evaluated visually, and an assessed percentage phytotoxicity score is given for each herbicidal application on each plant species (with 100%=total damage to plant; 0%=no damage to plant).
(§4) The plant species tested are as follows: Alopecurus myosuroides (ALOMY), Avena fatua (AVEFA), Lolium perenne (LOLPE), Echinochloa crus-galli (ECHCG).

[2] = tested on: Echinochloa crus-galli (ECHCG); settings: Echinochloa crus-galli, 250 g/ha, visual assessment (100%=total damage, 0%=no damage)
Method: as §1, §2, §3, §4

[3] = tested on: Avena fatua (AVEFA); settings: Avena fatua, 250 g/ha, visual assessment (100%=total damage, 0%=no damage)
Method: as §1, §2, §3, §4

[4] = tested on: Lolium perenne (LOLPE); settings: Lolium perenne, 250 g/ha, visual assessment (100%=total damage, 0%=no damage)
Method: as §1, §2, §3, §4

[5] = post-emergence, 360 h, post-emergence, 15 DAA, read-out: Post-emergence herbicidal activity (percentage phytotoxicity) ALOMY POST
[6] = pre-emergence, 480 h, pre-emergence, 20 DAA, read-out: Pre-emergence herbicidal activity (percentage phytotoxicity) ALOMY PRE
[7] = post-emergence, 360 h, post-emergence, 15 DAA, read-out: Post-emergence herbicidal activity (percentage phytotoxicity) ECHCG POST
[8] = pre-emergence, 480 h, pre-emergence, 20 DAA, read-out: Pre-emergence herbicidal activity (percentage phytotoxicity) ECHCG PRE
[9] = post-emergence, 360 h, post-emergence, 15 DAA, read-out: Post-emergence herbicidal activity (percentage phytotoxicity) AVEFA POST
[10] = pre-emergence, 480 h, pre-emergence, 20 DAA, read-out: Pre-emergence herbicidal activity (percentage phytotoxicity) AVEFA PRE
[11] = post-emergence, 360 h, post-emergence, 15 DAA, read-out: Post-emergence herbicidal activity (percentage phytotoxicity) LOLPE POST
[12] = pre-emergence, 480 h, pre-emergence, 20 DAA, read-out: Pre-emergence herbicidal activity (percentage phytotoxicity) LOLPE PRE

| Compound | pest or weed control at 250 g/ha [1, 5] | pest or weed control at 250 g/ha [1, 6] | pest or weed control at 250 g/ha [2, 7] | pest or weed control at 250 g/ha [2, 8] | pest or weed control at 250 g/ha [3, 9] | pest or weed control at 250 g/ha [3, 10] | pest or weed control at 250 g/ha [4, 11] | pest or weed control at 250 g/ha [4, 12] |
| --- | --- | --- | --- | --- | --- | --- | --- | --- |
| COc1ccc(NC(=O)CC2CC(=O)C(c3c(C)cc(C)cc3C)C2=O)cc1OC (stereo not shown) [Compound B2] | 40% | 40% | 10% | 80% | 30% | 60% | 30% | 80% |
| Cc1cc(C)c(C2C(=O)CC(CC(=O)Nc3ccc(F)cc3F)C2=O)c(C)c1 (stereo not shown) [Compound B3] | 0% | 60% | 70% | 90% | 10% | 50% | 80% | 90% |
| Cc1cc(-c2ncc(F)cn2)cc(C)c1C1C(=O)CC(CC(=O)NC(C)(C)C)C1=O (stereo not shown) [Compound B5] | 100% | 100% | 100% | 100% | 100% | 90% | 90% | 100% |
| COCCOCCCNC(=O)CC1CC(=O)C(c2c(C)cc(C)cc2C)C1=O (stereo not shown) [Compound B7] | 100% | 100% | 100% | 80% | 100% | 90% | 80% | 90% |
| Cc1cc(C)c(C2C(=O)CC(CC(N)=O)C2=O)c(C)c1 (stereo not shown) [Compound B8] | 80% | 80% | 100% | 90% | 100% | 90% | 90% | 100% |
| Cc1cc(C)c(C2C(=O)CC(CC(=O)NCc3cccc(C#N)c3)C2=O)c(C)c1 (stereo not shown) [Compound B9] | 70% | 70% | 70% | 100% | 70% | 70% | 70% | 90% |
| COC(=O)c1cccc(CNC(=O)CC2CC(=O)C(c3c(C)cc(C)cc3C)C2=O)c1 (stereo not shown) [Compound B10] | 30% | 0% | 70% | 0% | 70% | 0% | 30% | 0% |
| COc1cccc(CNC(=O)CC2CC(=O)C(c3c(C)cc(C)cc3C)C2=O)c1 (stereo not shown) [Compound B11] | 70% | 70% | 70% | 90% | 70% | 70% | 80% | 90% |
| Cc1cc(C)c(C2C(=O)CC(CC(=O)NCc3ccccc3C)C2=O)c(C)c1 (stereo not shown) [Compound B12] | 60% | 70% | 90% | 100% | 60% | 30% | 90% | 90% |
| Cc1cc(C)c(C2C(=O)CC(CC(=O)NCc3ccc(Cl)cc3)C2=O)c(C)c1 (stereo not shown) [Compound B13] | 50% | 50% | 80% | 90% | 70% | 40% | 90% | 90% |
| Cc1ccc(CNC(=O)CC2CC(=O)C(c3c(C)cc(C)cc3C)C2=O)cc1 (stereo not shown) [Compound B14] | 70% | 70% | 90% | 70% | 80% | 70% | 90% | 90% |
| Cc1cc(C)c(C2C(=O)CC(CC(=O)NCc3ccc(C(F)(F)F)cc3)C2=O)c(C)c1 (stereo not shown) [Compound B15] | 70% | 80% | 90% | 90% | 90% | 80% | 90% | 100% |
| Cc1cc(C)c(C2C(=O)CC(CC(=O)NCc3ccc(F)cc3)C2=O)c(C)c1 (stereo not shown) [Compound B16] | 70% | 80% | 90% | 90% | 70% | 30% | 90% | 90% |
| Cc1cc(C)c(C2C(=O)CC(CC(=O)NCc3ccccc3Cl)C2=O)c(C)c1 (stereo not shown) [Compound B17] | 40% | 20% | 70% | 90% | 50% | 0% | 70% | 90% |
| COc1ccc(CNC(=O)CC2CC(=O)C(c3c(C)cc(C)cc3C)C2=O)cc1 (stereo not shown) [Compound B18] | 80% | 70% | 90% | 90% | 90% | 80% | 100% | 100% |
| Cc1cc(C)c(C2C(=O)CC(CC(=O)NCc3ccccc3C(F)(F)F)C2=O)c(C)c1 (stereo not shown) [Compound B19] | 50% | 10% | 70% | 90% | 50% | 20% | 70% | 80% |
| Cc1cc(C)c(C2C(=O)CC(CC(=O)NCc3cccc([N+](=O)[O-])c3)C2=O)c(C)c1 (stereo not shown) [Compound B20] | 70% | 80% | 90% | 90% | 80% | 90% | 40% | 70% |
| Cc1cc(C)c(C2C(=O)CC(CC(=O)NCc3cccc(F)c3)C2=O)c(C)c1 (stereo not shown) [Compound B21] | 80% | 80% | 90% | 100% | 90% | 50% | 90% | 100% |
| Cc1cc(C)c(C2C(=O)CC(CC(=O)NCc3ccccc3Br)C2=O)c(C)c1 (stereo not shown) [Compound B22] | 30% | 30% | 80% | 90% | 20% | 100% | 80% | 90% |
| Cc1cc(C)c(C2C(=O)CC(CC(=O)NCc3cccc(Br)c3)C2=O)c(C)c1 (stereo not shown) [Compound B23] | 60% | 70% | 90% | 90% | 70% | 60% | 90% | 100% |

Reference: patent US10206394B2, “Herbicidal compounds” (Syngenta Participations AG, priority 2014, dated 2019)
